Results from ChEMBL document CHEMBL6074670, “Discovery of NP3-253, a Potent Brain Penetrant Inhibitor of the NLRP3 Inflammasome” (J Med Chem, 2024).
Blank lines part the entries; values can stand above or below the compound they belong to. Active and inactive are the calls of the source. The rule behind the calls is not given here.

What was measured:
[1] = target: NACHT, LRR and PYD domains-containing protein 3 (Mus musculus) (UniProt Q8R4B8); test: In vivo inhibition of NLRP3 in LPS/ATP-induced C57BL/6JRi mouse peritonitis model assessed as reduction in IL-1beta level at 3 mg/kg, po preadministered with compound for 3 hrs followed by LPS stimulation for 2 hrs and measured 15 mins after ATP addition; assay type: functional, organism-based; settings: time 315.0 min
Sequence of NACHT, LRR and PYD domains-containing protein 3 (Mus musculus) (Q8R4B8 whole entry, the tested form may be a part): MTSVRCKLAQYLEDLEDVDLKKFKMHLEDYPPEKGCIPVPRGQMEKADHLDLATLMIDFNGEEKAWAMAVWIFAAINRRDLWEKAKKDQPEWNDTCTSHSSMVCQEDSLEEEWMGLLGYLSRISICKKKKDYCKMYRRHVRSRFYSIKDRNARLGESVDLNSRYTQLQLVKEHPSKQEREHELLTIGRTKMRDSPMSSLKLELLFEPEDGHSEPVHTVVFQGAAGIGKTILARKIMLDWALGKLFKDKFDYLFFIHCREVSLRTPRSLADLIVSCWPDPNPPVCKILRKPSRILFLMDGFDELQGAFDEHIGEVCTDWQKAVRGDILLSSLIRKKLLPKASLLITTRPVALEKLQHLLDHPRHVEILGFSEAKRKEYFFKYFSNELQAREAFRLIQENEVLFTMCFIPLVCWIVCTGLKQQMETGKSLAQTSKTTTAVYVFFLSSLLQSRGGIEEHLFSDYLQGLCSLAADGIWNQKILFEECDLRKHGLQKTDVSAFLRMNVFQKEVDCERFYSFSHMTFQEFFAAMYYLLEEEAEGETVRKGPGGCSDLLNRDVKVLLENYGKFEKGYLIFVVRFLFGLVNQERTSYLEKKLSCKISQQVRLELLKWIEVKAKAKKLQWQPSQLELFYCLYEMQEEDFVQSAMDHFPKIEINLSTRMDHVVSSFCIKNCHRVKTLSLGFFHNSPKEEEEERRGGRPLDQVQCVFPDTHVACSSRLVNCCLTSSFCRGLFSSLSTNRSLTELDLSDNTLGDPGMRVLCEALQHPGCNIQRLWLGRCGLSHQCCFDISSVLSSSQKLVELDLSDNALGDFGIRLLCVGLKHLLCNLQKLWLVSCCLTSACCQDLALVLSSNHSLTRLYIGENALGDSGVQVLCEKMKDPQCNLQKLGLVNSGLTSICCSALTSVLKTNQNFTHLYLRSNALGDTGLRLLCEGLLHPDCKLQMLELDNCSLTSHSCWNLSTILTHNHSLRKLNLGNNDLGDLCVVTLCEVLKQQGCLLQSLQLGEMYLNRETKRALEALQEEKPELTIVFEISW

[2] = target: NACHT, LRR and PYD domains-containing protein 3 (Mus musculus, UniProt Q8R4B8); test: Inhibition of NLRP3 inflammasome in C57BL/6J mouse whole blood assessed as reduction in LPS/ATP induced IL-1beta secretion preincubated for 60 mins followed by LPS addition for 4 hrs prior to ATP addition for 30 mins by HTRF method; assay type: tissue-based
Sequence of NACHT, LRR and PYD domains-containing protein 3 (Q8R4B8 whole entry, the tested form may be a part): as above

[3] = target: NACHT, LRR and PYD domains-containing protein 3 (Mus musculus) (UniProt Q8R4B8); test: In vivo inhibition of NLRP3 in LPS/ATP-induced C57BL/6JRi mouse peritonitis model assessed as reduction in IL-1beta level at 2 mg/kg, po preadministered with compound for 3 hrs followed by LPS stimulation for 2 hrs and measured 15 mins after ATP addition; assay type: functional, organism-based; settings: time 315.0 min
[4] = target: NACHT, LRR and PYD domains-containing protein 3 (Mus musculus) (UniProt Q8R4B8); test: In vivo inhibition of NLRP3 in LPS-induced C57BL/6JRi mouse neuroinflammation model assessed as reduction in IL-1beta level in CSF at 2 mg/kg, po pretreated with LPS for 23 hrs followed by compound addition for 1 hr prior to second dose of LPS addition and measured after 4 hrs; assay type: functional, organism-based; settings: time 5.0 hrs
[5] = target: NACHT, LRR and PYD domains-containing protein 3 (Mus musculus) (UniProt Q8R4B8); test: In vivo inhibition of NLRP3 in LPS-induced C57BL/6JRi mouse neuroinflammation model assessed as reduction in blood IL-1beta level at 2 mg/kg, po pretreated with LPS for 23 hrs followed by compound addition for 1 hr prior to second dose of LPS addition and measured after 4 hrs; assay type: functional, organism-based; settings: time 5.0 hrs
[6] = target: NACHT, LRR and PYD domains-containing protein 3 (Mus musculus) (UniProt Q8R4B8); test: In vivo inhibition of NLRP3 in LPS/ATP-induced C57BL/6JRi mouse peritonitis model assessed as reduction in IL-1beta level at 0.0083 mg/kg, po preadministered with compound for 3 hrs followed by LPS stimulation for 2 hrs and measured 15 mins after ATP addition; assay type: functional, organism-based; settings: time 315.0 min
[7] = target: NACHT, LRR and PYD domains-containing protein 3 (Mus musculus) (UniProt Q8R4B8); test: In vivo inhibition of NLRP3 in LPS-induced C57BL/6JRi mouse neuroinflammation model assessed as reduction in blood IL-1beta level at 0.02 mg/kg, po pretreated with LPS for 23 hrs followed by compound addition for 1 hr prior to second dose of LPS addition and measured after 4 hrs; assay type: functional, organism-based; settings: time 5.0 hrs
[8] = target: NACHT, LRR and PYD domains-containing protein 3 (Mus musculus) (UniProt Q8R4B8); test: In vivo inhibition of NLRP3 in LPS/ATP-induced C57BL/6JRi mouse peritonitis model assessed as reduction in IL-1beta level at 0.3 mg/kg, po preadministered with compound for 3 hrs followed by LPS stimulation for 2 hrs and measured 15 mins after ATP addition; assay type: functional, organism-based; settings: time 315.0 min
Pyrin = target: T1, Pyrin (Homo sapiens, UniProt O15553); test: Inhibition of pyrin inflammasome activation in human U-937 cells assessed as IL-1beta secretion preincubated for 1 hr followed by BAA473 addition and measured after 4 hrs; assay type: cell-based
T1 sequence (O15553 whole entry): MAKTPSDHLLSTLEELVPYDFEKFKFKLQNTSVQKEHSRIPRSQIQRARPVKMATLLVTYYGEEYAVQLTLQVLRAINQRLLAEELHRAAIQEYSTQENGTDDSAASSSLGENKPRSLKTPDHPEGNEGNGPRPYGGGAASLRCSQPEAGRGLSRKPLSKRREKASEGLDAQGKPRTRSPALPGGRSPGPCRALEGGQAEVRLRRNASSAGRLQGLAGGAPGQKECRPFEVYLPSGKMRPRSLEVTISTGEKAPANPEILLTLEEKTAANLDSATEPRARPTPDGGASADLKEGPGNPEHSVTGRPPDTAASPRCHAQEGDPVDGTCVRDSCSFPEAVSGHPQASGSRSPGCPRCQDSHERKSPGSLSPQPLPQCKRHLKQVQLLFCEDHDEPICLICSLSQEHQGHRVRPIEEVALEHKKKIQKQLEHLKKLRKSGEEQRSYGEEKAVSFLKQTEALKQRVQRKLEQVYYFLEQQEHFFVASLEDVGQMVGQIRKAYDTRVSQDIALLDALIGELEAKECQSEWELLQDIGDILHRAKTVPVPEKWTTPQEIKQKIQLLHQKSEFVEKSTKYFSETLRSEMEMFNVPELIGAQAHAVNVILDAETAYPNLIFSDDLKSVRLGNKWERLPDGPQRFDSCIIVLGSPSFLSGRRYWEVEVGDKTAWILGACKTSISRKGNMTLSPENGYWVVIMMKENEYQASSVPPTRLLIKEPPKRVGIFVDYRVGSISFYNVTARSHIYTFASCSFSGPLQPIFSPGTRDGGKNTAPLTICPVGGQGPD

[9] = target: NACHT, LRR and PYD domains-containing protein 3 (Mus musculus) (UniProt Q8R4B8); test: In vivo inhibition of NLRP3 in LPS/ATP-induced C57BL/6JRi mouse peritonitis model assessed as reduction in IL-1beta level at 0.05 mg/kg, po preadministered with compound for 3 hrs followed by LPS stimulation for 2 hrs and measured 15 mins after ATP addition; assay type: functional, organism-based; settings: time 315.0 min
[10] = target: T2, Muscarinic acetylcholine receptor M2 (Homo sapiens) (UniProt P08172); test: Binding affinity to M2 muscarinic receptor (unknown origin)
T2 sequence (whole entry): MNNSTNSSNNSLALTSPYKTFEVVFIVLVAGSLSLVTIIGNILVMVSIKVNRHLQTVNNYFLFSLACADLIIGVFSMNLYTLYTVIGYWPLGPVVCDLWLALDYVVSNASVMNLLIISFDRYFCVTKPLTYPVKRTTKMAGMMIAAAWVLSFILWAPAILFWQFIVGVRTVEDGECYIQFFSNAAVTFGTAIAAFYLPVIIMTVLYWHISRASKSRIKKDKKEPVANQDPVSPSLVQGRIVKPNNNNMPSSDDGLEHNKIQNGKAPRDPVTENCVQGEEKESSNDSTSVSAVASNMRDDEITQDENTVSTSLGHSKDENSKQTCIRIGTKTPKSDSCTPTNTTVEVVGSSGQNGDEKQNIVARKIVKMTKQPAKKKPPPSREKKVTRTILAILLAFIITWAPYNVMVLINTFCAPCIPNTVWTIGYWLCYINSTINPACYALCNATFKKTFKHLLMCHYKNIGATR

[11] = target: Sodium-dependent serotonin transporter (Homo sapiens) (UniProt P31645); test: Binding affinity to 5HTT (unknown origin)
Sequence of Sodium-dependent serotonin transporter (Homo sapiens) (P31645 whole entry, looked up, the tested form may be a part): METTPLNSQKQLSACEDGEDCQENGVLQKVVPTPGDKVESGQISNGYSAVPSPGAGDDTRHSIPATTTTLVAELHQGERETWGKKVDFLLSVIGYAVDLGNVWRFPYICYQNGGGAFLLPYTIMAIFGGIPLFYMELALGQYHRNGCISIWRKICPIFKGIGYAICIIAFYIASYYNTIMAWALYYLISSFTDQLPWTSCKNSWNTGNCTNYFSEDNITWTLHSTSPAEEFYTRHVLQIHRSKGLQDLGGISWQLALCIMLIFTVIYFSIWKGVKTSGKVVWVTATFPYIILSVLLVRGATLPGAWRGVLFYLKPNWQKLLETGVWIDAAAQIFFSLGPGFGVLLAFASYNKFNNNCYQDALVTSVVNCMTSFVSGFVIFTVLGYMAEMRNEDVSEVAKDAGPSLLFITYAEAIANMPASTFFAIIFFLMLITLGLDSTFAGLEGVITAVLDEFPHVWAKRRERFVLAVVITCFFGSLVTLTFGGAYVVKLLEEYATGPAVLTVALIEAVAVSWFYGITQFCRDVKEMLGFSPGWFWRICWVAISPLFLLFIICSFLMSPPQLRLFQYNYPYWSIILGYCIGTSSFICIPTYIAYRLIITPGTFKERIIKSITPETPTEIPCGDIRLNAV

[12] = target: NACHT, LRR and PYD domains-containing protein 3 (Mus musculus) (UniProt Q8R4B8); test: In vivo inhibition of NLRP3 in LPS-induced C57BL/6JRi mouse neuroinflammation model assessed as reduction in IL-1beta level in CSF at 0.2 mg/kg, po pretreated with LPS for 23 hrs followed by compound addition for 1 hr prior to second dose of LPS addition and measured after 4 hrs; assay type: functional, organism-based; settings: time 5.0 hrs
[13] = target: NACHT, LRR and PYD domains-containing protein 3 (Mus musculus) (UniProt Q8R4B8); test: In vivo inhibition of NLRP3 in LPS-induced C57BL/6JRi mouse neuroinflammation model assessed as reduction in IL-1beta level in CSF at 0.02 mg/kg, po pretreated with LPS for 23 hrs followed by compound addition for 1 hr prior to second dose of LPS addition and measured after 4 hrs; assay type: functional, organism-based; settings: time 5.0 hrs
[14] = target: NACHT, LRR and PYD domains-containing protein 3 (Mus musculus) (UniProt Q8R4B8); test: In vivo inhibition of NLRP3 in LPS-induced C57BL/6JRi mouse neuroinflammation model assessed as reduction in blood IL-1beta level at 0.2 mg/kg, po pretreated with LPS for 23 hrs followed by compound addition for 1 hr prior to second dose of LPS addition and measured after 4 hrs; assay type: functional, organism-based; settings: time 5.0 hrs
[15] = target: NLR family CARD domain-containing protein 4 (Homo sapiens) (UniProt Q9NPP4); test: Inhibition of NLRC4 activation overexpressed in human THP-1 cells assessed as reduction in IL-1beta secretion preincubated for 1 hr followed by PrgI protein addition and measured after 20 hrs; assay type: cell-based
Sequence of NLR family CARD domain-containing protein 4 (Homo sapiens) (Q9NPP4 whole entry, the tested form may be a part): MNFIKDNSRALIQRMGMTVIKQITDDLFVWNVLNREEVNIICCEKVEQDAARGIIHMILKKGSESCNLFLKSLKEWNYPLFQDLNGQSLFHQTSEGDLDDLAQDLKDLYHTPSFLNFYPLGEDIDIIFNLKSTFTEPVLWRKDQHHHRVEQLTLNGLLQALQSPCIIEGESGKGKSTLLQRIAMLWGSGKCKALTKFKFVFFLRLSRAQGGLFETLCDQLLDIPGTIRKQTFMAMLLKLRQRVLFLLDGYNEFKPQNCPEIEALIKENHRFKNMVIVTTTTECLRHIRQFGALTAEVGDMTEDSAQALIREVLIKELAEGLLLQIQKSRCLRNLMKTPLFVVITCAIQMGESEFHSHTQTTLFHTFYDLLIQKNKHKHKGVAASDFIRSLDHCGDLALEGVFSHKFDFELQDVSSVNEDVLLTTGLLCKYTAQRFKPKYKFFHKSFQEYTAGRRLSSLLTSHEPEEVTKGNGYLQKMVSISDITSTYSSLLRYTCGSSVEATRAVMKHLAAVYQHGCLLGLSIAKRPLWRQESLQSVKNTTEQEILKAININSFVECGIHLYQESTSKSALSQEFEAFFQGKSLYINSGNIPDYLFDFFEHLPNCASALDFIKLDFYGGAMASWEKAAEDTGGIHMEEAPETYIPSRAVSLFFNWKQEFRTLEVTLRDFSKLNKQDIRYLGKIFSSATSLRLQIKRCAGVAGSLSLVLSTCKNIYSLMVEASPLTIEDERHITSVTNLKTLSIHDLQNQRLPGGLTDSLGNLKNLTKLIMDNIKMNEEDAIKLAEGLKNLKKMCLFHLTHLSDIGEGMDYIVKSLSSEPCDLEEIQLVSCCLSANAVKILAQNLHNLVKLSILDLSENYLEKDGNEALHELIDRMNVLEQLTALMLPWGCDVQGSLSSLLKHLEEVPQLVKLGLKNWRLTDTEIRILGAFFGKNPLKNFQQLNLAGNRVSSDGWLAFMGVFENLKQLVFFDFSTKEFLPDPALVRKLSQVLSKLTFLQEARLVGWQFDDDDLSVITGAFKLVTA

inhibition [1]: 99.5%
Compound: Cc1cc(C(F)(F)F)cc(O)c1-c1ccc(N[C@@H]2CCCN(C)C2)nn1

IC50 [2]: 2.1 nM | inhibition [1]: 99.6%
Compound: Cc1cc(C(F)(F)F)cc(O)c1-c1ccc(N[C@@H]2CCCN(CCO)C2)nn1

IC50 [2]: 5.8 nM | inhibition [1]: 99%
Compound: Cc1cc(C)c(-c2ccc(N[C@@H]3CCCN(C)C3)nn2)c(O)c1

inhibition [3]: 99.6% | inhibition [4]: 96.5% | IC50 [2]: 2.5 nM | inhibition [5]: 94.3% | inhibition [6]: 16% | inhibition [7]: 42.5% | inhibition [8]: 98.3% | IC50 (Pyrin): > 33000 nM | inhibition [9]: 43.9% | Activity [10]: Active | Activity [11]: Active | inhibition [1]: 99.4% | inhibition [12]: 51.6% | inhibition [13]: -2% | inhibition [14]: 87.7% | inhibition [15]: inactive
Compound: CCN1CCC[C@@H](Nc2ccc(-c3c(C)cc(C(F)(F)F)cc3O)nn2)C1
